One data set addresses T1, falcipain-2 (Plasmodium falciparum, UniProt Q8I6U4).
T1 construct: made in house; host or cells: E. coli
T1 sequence (Q8I6U4 244-484): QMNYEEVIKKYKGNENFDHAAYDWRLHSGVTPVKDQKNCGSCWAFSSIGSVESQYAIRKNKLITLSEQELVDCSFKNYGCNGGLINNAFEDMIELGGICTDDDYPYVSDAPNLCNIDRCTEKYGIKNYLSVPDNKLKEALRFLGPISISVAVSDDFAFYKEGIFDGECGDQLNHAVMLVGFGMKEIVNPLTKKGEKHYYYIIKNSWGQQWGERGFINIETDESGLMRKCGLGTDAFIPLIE
Description: Inhibition of recombinant falcipain-2, fluorometric microplate assay (Cbz-Phe-Arg-AMC). Type of data set: biochemical. Particulars: recombinant falcipain-2, values marked ^a: only one experiment, ni = no inhibition. On the procedure:
(§1) Recombinant falcipain-2 and falcipain-3 were produced as previously described. Inhibitory activities against recombinant falcipain-2 and falcipain-3 were evaluated in fluorometric microplate assays using the substrates Cbz-Phe-Arg-AMC and Cbz-Leu-Arg-AMC (AMC, 7-amino-4-methyl-coumarin). The cysteine protease inhibitor E-64 was used as a positive control. The solvent DMSO was used as negative control. […] The in vitro data for the etacrynic acid derivatives are compared to those of the well known drug chloroquine and to E-64.
(§2) Falcipain-2 and falcipain-3 were recombinantly expressed in E. coli and refolded to active enzyme as previously described.
(§3) IC50 values for inhibition of falcipain-2 and falcipain-3 were determined as described previously using the fluorogenic substrates Cbz-Phe-Arg-AMC and Cbz-Leu-Arg-AMC, respectively (AMC, 7-amino-4 methylcoumarin). As a positive control the well-known cysteine protease inhibitor E-64 [7, 25, 26] and as a negative control the solvent (DMSO) was used. Dose-dependent effects of compounds on parasite development (P. falciparum strain W2) were quantified by flow cytometry according to a previously published method. First, a screening with inhibitor concentrations of […] was performed and the percentage activity of infected red blood cells (RBCs) relative to the negative control was determined. […] Chloroquine and E-64 were used as positive controls, and the solvent DMSO was used as a negative control. For selected compounds assays with the P. falciparum strain 3D7 were performed using a fluorometric assay with Hoechst-33258 [28], or the microculture tetrazolium test measuring parasite lactate dehydrogenase activity. The parasites were cultivated in vitro as described previously. Compounds were screened at concentrations between 1 nM and 100 μM. Synchronized ring stages were plated in 96-well plates at a parasitemia of 1%, in the presence of the compounds (dissolved in DMSO). Incubation of parasites with DMSO alone at a concentration of 0.5% v/v was used as a negative control. IC50 values were calculated by non-linear regression analyses using the programs GaphPad® Prism 4 and GraFit® [31, 32].

For a further data set, the system named is P. falciparum strain 3D7. Description: Antiplasmodial activity in vitro, Hoechst-33258 fluorometric assay or parasite lactate dehydrogenase test. Particulars: Plasmodium falciparum. In kind it is cell-based. On the procedure:
as §1, §3

Data set [1] deals with P. falciparum strain W2. The conditions noted are these: read-out: P. f. 3D7/W2, IC50; cited from earlier work.
The target of another data set is T2, falcipain-3 (Plasmodium falciparum, UniProt Q8IIL0).
T2 construct: made in house; host or cells: E. coli
T2 sequence (Q8IIL0 243-492): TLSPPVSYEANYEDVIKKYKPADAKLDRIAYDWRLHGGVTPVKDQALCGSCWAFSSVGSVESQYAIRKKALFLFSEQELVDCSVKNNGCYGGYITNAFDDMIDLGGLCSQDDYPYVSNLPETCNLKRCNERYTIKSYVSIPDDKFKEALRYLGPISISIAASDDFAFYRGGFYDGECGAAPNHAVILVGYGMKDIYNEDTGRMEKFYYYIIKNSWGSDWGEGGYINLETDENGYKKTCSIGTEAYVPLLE
Put plainly: Inhibition of recombinant falcipain-3, fluorometric microplate assay (Cbz-Leu-Arg-AMC). The conditions noted are these: recombinant falcipain-3; ni = no inhibition; read-out: FP-3 IC50. In kind it is biochemical. On the procedure:
as §1, §2, §3

Data set [2] relates to P. falciparum strain W2. Put plainly: Antiplasmodial activity in vitro, parasite development quantified by flow cytometry. Particulars: Plasmodium falciparum, 3D7 / W2; W2 strain (CQ-resistant); ni = no inhibition; read-out: P. f. 3D7/W2, IC50. Type of data set: cell-based, Plasmodium falciparum. On the procedure: as §3
On the technique in general: A flow cytometer gives signals particle by particle.

Data set [3] in a line: In vitro cytotoxicity assay. Particulars: human, 293T human kidney epithelium cells; 293T cells. In kind it is cell-based. On the procedure: Recombinant falcipain-2 and falcipain-3 were produced as previously described. […] The cysteine protease inhibitor E-64 was used as a positive control. The solvent DMSO was used as negative control. […] For the experimental procedures, cells were detached from the flasks with a rubber policeman, washed twice with PBS (phosphate-buffer saline) containing 1 mL trypsin-EDTA (1 x), and suspended at 2 x 10^6 cells mL^-1 in complete medium. Inhibitor assays were carried out as described elsewhere except that the cell concentration used in this study was 2 x 10^4 mL^-1 well^-1 [33].

Molecules are shown by their SMILES. Where two headings read alike, the source gives them in different places.

These results are taken from PMC6253875, “Synthesis and Evaluation of Non-peptidic Cysteine Protease Inhibitors of P. falciparum Derived from Etacrynic Acid” (Molecules, 2008).

In the case of `C=C(CC)C(=O)c1ccc(OCC(=O)NCCCC)c(F)c1` [Compound 6, N-butyl-2-(2-fluoro-4-(2-methylenebutanoyl)phenoxy)acetamide], the melting point (in general, the temperature of the solid-liquid transition) came out at 73 °C. Also, at falcipain-2, the “FP-2 IC50” value was “ni”. For the same compound, the IC50 in the data set on P. falciparum strain 3D7 (3D7 strain (CQ-sensitive), read-out: P. f. 3D7/W2, IC50) is 141 ± 4 µM.

Take `CCN(CC)CCCC(C)Nc1ccnc2cc(Cl)ccc12` (stereo not drawn) [CQ, chloroquine, reference compound]: the IC50 is 0.01 ± 0.0048 µM in the data set on P. falciparum strain 3D7 (3D7, read-out: P. f. 3D7/W2, IC50) and 0.24 µM in the data set with P. falciparum strain W2 [1].

In the case of `C=C(CC)C(=O)c1ccc(OCC(=O)NCCCCCC(=O)O)c(Cl)c1Cl` [Compound 23, 6-{2-[2,3-Dichloro-4-(2-methylene-butyryl)-phenoxy]acetylamino}-hexanoic acid], the IC50 on falcipain-2 (read-out: FP-2 IC50) is 57.1 ± 13 µM; at falcipain-3, 96.5 ± 0.6 µM; in the data set with P. falciparum strain W2 [2] it was 18.8 ± 0.9 µM; in data set [3] it was more than 160 µM.
